{
  "source": "ChEMBL document CHEMBL5046276",
  "about": "(J Med Chem, 2022)",
  "key": {"Plasmodium falciparum [1]": {"test_system": "Plasmodium falciparum", "test": "Antimalarial activity against asexual blood stage quinine-resistant Plasmodium falcipuram C2A assessed as parasite growth inhibition incubated for 72 hrs by SYBR Green I staining based fluorescence analysis", "type": "functional, organism-based"}, "Plasmodium yoelii [2]": {"test_system": "Plasmodium yoelii", "test": "Antimalarial activity against blood stage Plasmodium yoelii infected in BALB/c mouse assessed as inhibition of parasitemia at 60 mg/kg, ip qd for 5 days and measured after 30 days", "type": "functional, organism-based", "conditions": "time 30.0 day"}, "[3]": {"test": "Cytotoxicity against human HepG2 cells incubated for 72 hrs by CCK-8 assay"}, "[4]": {"test": "Metabolic stability in mouse liver microsomes assessed as intrinsic clearance at […] incubated for 45 mins in presence of NADPH by LC/MS analysis", "type": "ADME, Microsome", "conditions": "read-out: CLH"}, "Plasmodium falciparum [5]": {"test_system": "Plasmodium falciparum", "test": "Antimalarial activity against asexual blood stage chloroquine-resistant Plasmodium falcipuram GB4 assessed as parasite growth inhibition incubated for 72 hrs by SYBR Green I staining based fluorescence analysis", "type": "functional, organism-based", "conditions": "GB4, 72 h"}, "Plasmodium falciparum [6]": {"test_system": "Plasmodium falciparum", "test": "Antimalarial activity against asexual blood stage sulfadoxine-pyrimethamine/mefloquine-resistant Plasmodium falcipuram CP286 assessed as parasite growth inhibition incubated for 72 hrs by SYBR Green I staining based fluorescence analysis", "type": "functional, organism-based", "conditions": "CP286, 72 h"}, "Plasmodium yoelii [7]": {"test_system": "Plasmodium yoelii", "test": "Antimalarial activity against blood stage Plasmodium yoelii infected in BALB/c mouse assessed as parasite recrudescence by measuring parasitemia at 60 mg/kg, ip qd for 5 days and measured on 12 to 18 days", "type": "functional", "conditions": "time 12-18 day"}, "[8]": {"test": "Toxicity in BALB/c mouse infected with blood stage Plasmodium yoelii assessed as animal death at 30 to 90 mg/kg, ip qd for 5 days and measured on day 60", "type": "organism-based", "conditions": "in vivo, 1440 h, dose 30-90 mg/kg, time 60 day"}, "Plasmodium yoelii [9]": {"test_system": "Plasmodium yoelii", "test": "Antimalarial activity against blood stage Plasmodium yoelii infected in BALB/c mouse assessed as parasite recrudescence by measuring parasitemia at 30 mg/kg, ip qd for 5 days and measured for 8 to 16 days", "type": "functional", "conditions": "time 8-16 day"}, "[10]": {"test": "Toxicity in BALB/c mouse infected with blood stage Plasmodium yoelii assessed as body weight loss at 30 to 90 mg/kg, ip qd for 5 days and measured upto 60 days", "type": "organism-based", "conditions": "in vivo, dose 30-90 mg/kg, time <=60 day"}, "[11]": {"test": "Toxicity in BALB/c mouse infected with liver stage transgenic Plasmodium berghei ANKA sporozoites transfected with GFP-Luc assessed as animal death at 30 mg/kg, iv measured on day 4 post-administration", "type": "organism-based", "conditions": "in vivo, 96 h, time 4 day"}, "Plasmodium falciparum [12]": {"test_system": "Plasmodium falciparum", "test": "Antimalarial activity against blood stage asynchronous Plasmodium falcipuram 3D7 assessed as parasite growth inhibition by measuring parasitemia at 10 to 100 nM incubated for 12 to 24 hrs by flow cytometry", "type": "functional, organism-based", "conditions": "dose 10-100 nM, time 12-24 hrs"}, "Plasmodium falciparum [13]": {"test_system": "Plasmodium falciparum", "test": "Antimalarial activity against blood stage asynchronous Plasmodium falcipuram 3D7 assessed as suppression of parasite reproduction by measuring parasitemia at 10 nM incubated for 24 hrs followed by compound washout and replacement with fresh medium without compounds and measured after 4 days by flow cytometry", "type": "functional"}, "Plasmodium falciparum [14]": {"test_system": "Plasmodium falciparum", "test": "Antimalarial activity against synchronized Plasmodium falcipuram 3D7 infected in human RBC assessed as ring stage parasite killing at 40 nM treated […] and incubated for 12 hrs followed by compound washout and replacement with fresh medium without compounds and measured at 50 hrs post infection by Geimsa staining based microscopy", "type": "functional, organism-based"}, "Plasmodium falciparum [15]": {"test_system": "Plasmodium falciparum", "test": "Antimalarial activity against synchronized Plasmodium falcipuram 3D7 infected in human RBC assessed as irreversible inhibition of parasite growth at schizont stage at 40 nM treated 29 to 41 hpi incubated for 12 hrs followed by compound washout and replacement with fresh medium without compounds and measured after 4 days by flow cytometry", "type": "functional, organism-based"}, "Plasmodium falciparum [16]": {"test_system": "Plasmodium falciparum", "test": "Antimalarial activity against wild-type Plasmodium falcipuram 3D7 infected in human RBC assessed as reduction in parasitemia in blood smear by measuring parasite survival ratio at ring stage at upto 700 nM incubated for 6 hrs followed by compound washout and replacement with fresh medium without compounds and measured after 66 hrs by ring stage survival assay", "type": "functional", "conditions": "dose nM <=700, time 6.0 hrs"}, "Plasmodium falciparum [17]": {"test_system": "Plasmodium falciparum", "test": "Antimalarial activity against ART-resistant Plasmodium falcipuram 6320 harbouring C580Y mutant infected in human RBC assessed as reduction in parasitemia in blood smear by measuring parasite survival ratio at ring stage at upto 700 nM incubated for 6 hrs followed by compound washout and replacement with fresh medium without compounds and measured after 66 hrs by ring stage survival assay", "type": "functional", "conditions": "dose nM <=700, time 6.0 hrs"}, "Plasmodium falciparum [18]": {"test_system": "Plasmodium falciparum", "test": "Inhibition of Plasmodium falcipuram HDAC assessed as effect on parasite histone deacetylation level at 5 to 20 nM incubated for 4 hrs by Western blot analysis", "conditions": "dose 5-20 nM"}, "Plasmodium falciparum [19]": {"test_system": "Plasmodium falciparum", "test": "In vivo inhibition of C-terminal TY1 fused HDAC2 in Plasmodium falcipuram 3D7 assessed as inhibition of parasite growth incubated for 4 hrs followed by compound washout and replacement with fresh medium with compounds measured after 68 hrs by SYBR Green I staining based fluorescence analysis", "type": "functional, organism-based"}, "Plasmodium falciparum [20]": {"test_system": "Plasmodium falciparum", "test": "Inhibition of Plasmodium falcipuram recombinant HDAC1 using HDAC-Glo I/II as substrate at 50 to 800 nM preincubated for 90 mins by luminescence based microplate reader analysis", "conditions": "dose 50-800 nM"}, "Histone deacetylase 2": {"target": "Histone deacetylase 2 (Homo sapiens, UniProt Q92769)", "sequence (Q92769 whole entry)": "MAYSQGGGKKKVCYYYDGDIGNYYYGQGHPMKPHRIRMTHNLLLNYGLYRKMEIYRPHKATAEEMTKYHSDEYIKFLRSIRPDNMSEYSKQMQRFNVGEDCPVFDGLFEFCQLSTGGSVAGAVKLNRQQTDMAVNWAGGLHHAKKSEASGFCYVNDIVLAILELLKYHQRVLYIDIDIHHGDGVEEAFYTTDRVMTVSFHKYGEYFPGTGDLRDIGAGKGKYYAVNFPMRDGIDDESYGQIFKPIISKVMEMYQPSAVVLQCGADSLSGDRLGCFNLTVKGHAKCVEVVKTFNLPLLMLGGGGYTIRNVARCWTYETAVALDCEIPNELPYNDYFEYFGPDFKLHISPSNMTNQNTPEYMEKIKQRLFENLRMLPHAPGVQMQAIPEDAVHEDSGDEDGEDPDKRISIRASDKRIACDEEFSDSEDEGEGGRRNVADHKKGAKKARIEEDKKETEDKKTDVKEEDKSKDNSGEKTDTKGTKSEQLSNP", "test": "biochemical", "type": "cell-based, Sf9", "description": "Inhibition of recombinant human full length C-terminal His tagged HDAC2 (1 to 488 residues) expressed in baculovirus-infected Sf9 insect cells using Ac-peptide as substrate incubated for 4 hrs"}, "[21]": {"target": "T1, NAD-dependent protein deacetylase sirtuin-2 (Homo sapiens, UniProt Q8IXJ6)", "T1 sequence (Q8IXJ6 whole entry)": "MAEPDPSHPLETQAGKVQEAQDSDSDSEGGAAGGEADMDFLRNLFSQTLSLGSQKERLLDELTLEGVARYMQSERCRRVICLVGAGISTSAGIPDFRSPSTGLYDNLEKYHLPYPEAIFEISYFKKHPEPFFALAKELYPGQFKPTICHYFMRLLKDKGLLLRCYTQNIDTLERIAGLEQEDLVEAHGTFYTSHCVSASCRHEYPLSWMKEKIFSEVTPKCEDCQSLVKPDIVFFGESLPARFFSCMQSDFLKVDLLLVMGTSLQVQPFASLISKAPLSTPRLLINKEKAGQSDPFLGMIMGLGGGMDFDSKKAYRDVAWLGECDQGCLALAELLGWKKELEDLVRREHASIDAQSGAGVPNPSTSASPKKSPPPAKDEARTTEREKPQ", "test": "Inhibition of human C-terminal His-tagged SIRT2 (50 to 356 residues) expressed in Escherichia coli using Ac-peptide as substrate incubated for 4 hrs followed by trypsin addition and further incubated for 2 hrs"}, "[22]": {"test": "Drug concentration in BALB/c mouse plasma at 5 mg/kg, ip measured upto 24 hrs by LC-MS/MS analysis", "type": "ADME, organism-based"}, "[23]": {"test": "Tmax in BALB/c mouse at 5 mg/kg, ip measured after upto 24 hrs by LC-MS/MS analysis", "type": "ADME, organism-based", "conditions": "in vivo"}, "[24]": {"test": "AUC (0 to infinity) in BALB/c mouse at 5 mg/kg, ip measured after upto 24 hrs by LC-MS/MS analysis", "type": "ADME, organism-based", "parameters": "route intraperitoneal, dose 5 mg/kg, time <=24", "conditions": "in vivo"}, "Plasmodium falciparum [25]": {"test_system": "Plasmodium falciparum", "test": "Antimalarial activity against synchronized Plasmodium falcipuram 3D7 infected in human RBC assessed as irreversible inhibition of parasite growth at trophozoite stage at 40 nM treated at 17 to 29 hpi incubated for 12 hrs followed by compound washout and replacement with fresh medium without compounds and measured after 4 days by flow cytometry", "type": "functional, organism-based"}, "Histone deacetylase 3": {"target": "Histone deacetylase 3 (Homo sapiens, UniProt O15379)", "sequence (O15379 whole entry, the tested form may be a part)": "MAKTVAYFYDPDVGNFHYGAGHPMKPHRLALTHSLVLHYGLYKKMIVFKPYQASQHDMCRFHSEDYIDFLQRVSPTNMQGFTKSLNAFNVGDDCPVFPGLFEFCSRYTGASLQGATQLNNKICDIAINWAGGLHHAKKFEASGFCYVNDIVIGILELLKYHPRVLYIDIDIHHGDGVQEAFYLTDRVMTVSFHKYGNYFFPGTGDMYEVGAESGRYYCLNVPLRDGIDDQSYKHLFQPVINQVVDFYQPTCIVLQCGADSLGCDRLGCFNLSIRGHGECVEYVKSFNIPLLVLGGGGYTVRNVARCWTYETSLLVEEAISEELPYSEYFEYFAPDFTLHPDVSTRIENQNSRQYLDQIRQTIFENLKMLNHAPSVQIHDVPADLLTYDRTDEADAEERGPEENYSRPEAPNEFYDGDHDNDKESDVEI", "test": "Potency index, ratio of test compound IC50 to Quisinostat IC50 for inhibition of human C-terminal His tagged HDAC3 (1 to 428 residues) expressed in baculovirus-infected Sf9 cells using Ac-peptide as substrate incubated for 4 hrs"}},
  "note": "Activity calls are given as the source filed them. No cut-off for these calls is given here.",
  "data": [
    {"smiles": "Cl.Cn1cc(CN2CC3(CCN(c4ncc(C(=O)NO)cn4)C3)C2)c2ccc(C#N)cc21", "values": [
      {"measurement": "IC50", "setting": "Plasmodium falciparum [1]", "result": 2.18, "unit": "nM"},
      {"measurement": "Activity", "setting": "Plasmodium yoelii [2]", "result": "Active"},
      {"measurement": "IC50 at 72 h", "setting": "[3]", "result": 1020, "unit": "nM"},
      {"measurement": "CLint scaled", "setting": "[4]", "result": 68.1, "unit": "mL/min/kg"},
      {"measurement": "IC50", "setting": "Plasmodium falciparum [5]", "result": 3.06, "unit": "nM"},
      {"measurement": "IC50", "setting": "Plasmodium falciparum [6]", "result": 5.85, "unit": "nM"},
      {"measurement": "Activity", "setting": "Plasmodium yoelii [7]", "result": 0.11, "unit": "%"},
      {"measurement": "Activity", "setting": "[8]", "result": "Non-Toxic"},
      {"measurement": "Activity", "setting": "Plasmodium yoelii [9]", "result": 0.02, "unit": "%"},
      {"measurement": "Activity", "setting": "[10]", "result": "Non-Toxic"},
      {"measurement": "Activity", "setting": "[11]", "result": "Non-Toxic"},
      {"measurement": "Activity", "setting": "Plasmodium falciparum [12]", "result": "Active"},
      {"measurement": "Activity", "setting": "Plasmodium falciparum [13]", "result": 100, "unit": "%"},
      {"measurement": "Activity", "setting": "Plasmodium falciparum [14]", "result": "Active"},
      {"measurement": "Activity", "setting": "Plasmodium falciparum [15]", "result": "Active"},
      {"measurement": "Activity", "setting": "Plasmodium falciparum [16]", "result": "Active"},
      {"measurement": "Activity", "setting": "Plasmodium falciparum [17]", "result": "Active"},
      {"measurement": "Activity", "setting": "Plasmodium falciparum [18]", "result": "Active"},
      {"measurement": "inhibition", "setting": "Plasmodium falciparum [19]", "result": "Active"},
      {"measurement": "inhibition", "setting": "Plasmodium falciparum [20]", "result": "Active"},
      {"measurement": "IC50", "setting": "Histone deacetylase 2", "result": 5.1, "unit": "nM"},
      {"measurement": "IC50", "setting": "[21]", "result": "> 10000", "unit": "nM"},
      {"measurement": "concentration at 24 h", "setting": "[22]", "result": 89, "unit": "ng/mL"},
      {"measurement": "Tmax", "setting": "[23]", "result": 15, "unit": "min"},
      {"measurement": "AUC(0-inf)", "setting": "[24]", "result": 640, "unit": "ng·h/mL"},
      {"measurement": "Activity", "setting": "Plasmodium falciparum [25]", "result": "Active"},
      {"measurement": "Ratio IC50", "setting": "Histone deacetylase 3", "result": 3}
    ]}
  ]
}
